US20030059451A1, “Use of orally administered dehydroepiandrosterone, precursors and derivatives thereof in order to improve the papery aspect of the skin” (priority 2000, published 2003)

Tests used:
Format in all cases: in vivo, healthy volunteers (men and women)
[1] = tested on: healthy volunteers, of both sexes, 60 to 80 years old; experiment: Clinical evaluation of the weathered (papyrus-like) appearance of the skin, randomized double-blind study versus placebo; conditions: 12 months; for variation in the weathered (papyrus-like) appearance relative to T0 (clinical score 0 to 9): back of a hand, 50 mg/day orally, FIG. 1
Description: (§1) The evaluation was carried out using a randomized double-blind clinical study on 70 individuals (35 men and 35 women). The inclusion criteria were as follows: healthy volunteers, of both sexes, free of any severe pathological condition and 60 to 80 years old.
(§2) The treatment consisted, for 12 months, of a daily dose of 50 mg of DHEA, taken in the morning, in the form of a breakable tablet, for half the individuals, or as a placebo for the other half of the individuals.
The weathered (papyrus-like) appearance is evaluated clinically, blind, on the back of a hand at the start of treatment (T0) and at the end of treatment (T12), by the same clinician.
The weathered (papyrus-like) appearance is represented by a clinical score ranging from 0 (weathered appearance absent or only very slightly noticeable) to 9 (very marked weathered appearance).
(§3) The statistical analysis is performed using the Wilcoxon test.

[2] = tested on: healthy volunteers, of both sexes, 60 to 80 years old; experiment: Clinical evaluation of the slackening of the skin, randomized double-blind study versus placebo; conditions: for Slackening of the skin of the forearm (clinical score 0 to 9): ventral side of the forearm
Description: as §1, §2
The slackening of the skin is evaluated clinically, blind, on the ventral side of the forearm and on the skin of the face at the start of treatment (T0) and at the end of treatment (T12), by the same clinician. The slackening of the skin is represented by a clinical score ranging from 0 (slight or hardly noticeable slackening) to 9 (very marked slackening). The statistical analysis is performed using the Wilcoxon test.

[3] = tested on: healthy volunteers, of both sexes, 60 to 80 years old; experiment: Elasticity of the skin measured with the Derma Torque Meter, randomized double-blind study versus placebo; conditions: for Elasticity of the skin of the forearm (ratio of extensibility to recovery): ventral side of the forearm
Description: as §1, §2
The elasticity of the skin was evaluated with the Derma Torque Meter® (DTM® Dia-Stron Limited, Andover, Hampshire, United Kingdom). The biomechanical properties (elasticity) of the skin of the ventral side of the forearm is measured. The DTM® makes it possible to study the response of the skin to a deformation applied in the direction parallel to its surface. The rotation of a disk stuck to the skin is measured and the elasticity of the skin is thus evaluated, which is one of the best markers of aging (Escoffier C. et al. (1989), J. Invest. Dermatol., 93, 353-357).
The elasticity is expressed as the ratio of extensibility to recovery.
as §3

[4] = after treatment with DHEA administered orally, 50 mg/day, 12 months

C[C@]12CC[C@H](O)CC1=CC[C@@H]1[C@@H]2CC[C@]2(C)C(=O)CC[C@@H]12 [DHEA, dehydroepiandrosterone]
variation in the weathered (papyrus-like) appearance relative to T0 (clinical score 0 to 9) ([1]; group of men): avoid this degradation | variation in the weathered (papyrus-like) appearance relative to T0 (clinical score 0 to 9) ([1]; group of women, significant relative to placebo (p=0.005)): decrease in the mean scores | effect on the weathered (papyrus-like) appearance of the skin ([1]; overall conclusion, after oral administration, 50 mg/day): improves the weathered (papyrus-like) appearance of the skin | Slackening of the skin of the face (clinical score 0 to 9) ([2]; T0 (start of treatment)): 6.69 | Slackening of the skin of the forearm (clinical score 0 to 9) ([2]; T0 (start of treatment)): 5.44 | Slackening of the skin of the face (clinical score 0 to 9) ([2]; T12 (end of treatment), 50 mg/day orally, 12 months, Wilcoxon P = 0.5): 6.81 | Slackening of the skin of the forearm (clinical score 0 to 9) ([2]; T12 (end of treatment), 50 mg/day orally, 12 months, Wilcoxon P = 0.15): 7.19 | variation in the slackening of the skin after treatment [2, 4]: do not significantly vary | Elasticity of the skin of the forearm (ratio of extensibility to recovery) ([3]; T0 (start of treatment)): 0.36 | Elasticity of the skin of the forearm (ratio of extensibility to recovery) ([3]; T12 (end of treatment), 50 mg/day orally, 12 months, Wilcoxon P = 0.55): 0.31 | variation in the elasticity of the skin after treatment [3, 4]: do not significantly vary
